Laboratory results as given in patent US20070269529A1, “Method For Treating Plants And Plant Parts” (priority 2003, published 2007).

Assays:
Format in all cases: cell-based, Raphanus sativus L. cv. Cherry-Belle
PPO (EC 1.14.18.1) = assay: PPO activity in radish cotyledons; settings: 20 mg/L, FIG. 6
Method: (§1) Seeds of Raphanus sativus L. cv. Cherry-Belle were germinated in darkness at 24° C. for 40 h in Petri dishes containing filter paper wetted with distilled water. The smaller of the two cotyledons was excised, the fresh weight determined, and 10 cotyledons placed adaxial side down on filter paper in Petri dishes containing 7.5 mL of phosphate buffered saline (PBS, 2 mM, pH 6.0) and the compounds to be tested at 20 mg/L. Cotyledons were then incubated under continuous illumination up to 72 h at 24° C. or 25° C. and the increase in fresh weight determined. Chlorophyll content was determined after extraction of tissue into 80% EtOH (containing butylated hydroxytoluene 10 mg/L) and quantified using the equations Chl a=(13.95A663)-(6.88A647) and Chl b=(24.96A652)-(7.32A663) as described by Lichtenthaler, H K (Methods in Enzymology 148:350-382, 1987). IAA oxidase, PAL, PPO and POD activity were determined as described by Kato, M et al. (Plant and Cell Physiology 41:440-447, 2000) and Li, X et al. (Plant Science 164:549-556, 2003).
PPO (EC 1.14.18.1): Like PAL and POD, PPO is an important enzyme catalyzing lignin biosynthesis in plants.

POD (EC 1.11.1.7) = assay: POD activity in radish cotyledons; settings: onset of organ maturity, FIG. 4
Method: as §1
To determine the effect of EML on induction of POD, activity of this enzyme was monitored during the 72 h incubation period after exposure to soy EML (20 mg/l) and the results are shown in FIG. 4. […] Highest POD activity was measured in control and ACC-treated cotyledons.

radish cotyledons [1] = assay: Radish cotyledon expansion bioassay (fresh weight, chlorophyll); settings: compounds 20 mg/L, 72 h, 25° C.; for Change in fresh weight: continuous illumination
Method: as §1
In order to remove variability from the bioassay—due presumably to temporal changes in the concentration of root-derived cytokinins in cotyledons—the bioassay procedure was modified to routinely include 0.2 mg/L (approximately 1 μM) kinetin in the background.
Cotyledon expansion growth: The effect of soy EML in the presence of kinetin on expansion growth was investigated and the results are shown in Table 1.

radish cotyledons [2] = assay: Protein content of radish cotyledons; settings: 20 mg/L, FIG. 1
Method: as §1
(§2) PAL (EC 4.3.1.5) activity: Ethylene is produced by plants in response to a variety of stresses, including wounding (Kato, M et al. Plant and Cell Physiology 41:440-447, 2000). Assuming the stress is of sufficient intensity and duration plants will also begin to show signs of senescence. […]

PAL (EC 4.3.1.5) = assay: PAL activity in radish cotyledons; settings: 20 mg/L, FIG. 1
Method: as §1, §2

IAA oxidase = IAA oxidase activity in radish cotyledons; settings: 20 mg/L, FIG. 7
Method: as §1
IAA Oxidase activity: IAA homeostasis is an important process contributing to correlative control of plant growth and development. Generally, IAA is synthesized in the apices and in shoots; apically derived IAA is basipetally transported. […]

| IAA oxidase activity (IAA oxidase) | Molecule | PPO activity (PPO (EC 1.14.18.1)) | POD activity at 48 and 72 h (POD (EC 1.11.1.7)) | % of control (change in fresh weight) (radish cotyledons [1]) [%] | Chlorophyll a + b (mg/g FW) (radish cotyledons [1]) | Chlorophyll a + b (μg/cotyledon) (radish cotyledons [1]) | Chlorophyll a/b (radish cotyledons [1]) | Change in fresh weight (radish cotyledons [1]) [mg] | protein content (radish cotyledons [2]) | PAL activity (PAL (EC 4.3.1.5)) | activity at 20 µg/mL (radish cotyledons [1]; Raphanus sativus, read-out: % of control (change in fresh weight)) [%] |
| --- | --- | --- | --- | --- | --- | --- | --- | --- | --- | --- | --- |
|  | NC1(C(=O)O)CC1 [ACC, 1-amminocyclopropane-1-carboxylic acid] | appeared to suppress PPO activity | Highest | 25 | 5.40 | 35.90 ± 6.13 | 0.83 | 2.56 ± 0.39 | delayed and reached a maximum only 24 h after exposure to light | progressively delayed |  |
|  | c1coc(CNc2ncnc3[nH]cnc23)c1 [Kinetin, kinetin] | appeared to increase gradually over time | lowest |  | 2.17 | 54.10 ± 7.03 | 0.87 | 15.49 ± 1.81 | rapid but transient increase | progressively delayed | 153 |
| no apparent effect | lysophosphatidylethanolamine [LPE] | did not induce PPO activity |  |  |  |  |  |  |  |  |  |
